Assay [1] has as its system recombinant human Bcl-2-G101V protein. Put plainly: Bcl-2-G101V TR-FRET Assay. In kind it is binding. The settings on record: ratio of biochemical IC50 Bcl-2 G101V / Bcl-2 WT. The method in brief: (§1)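 Ex337/em490 & 520 nm TR-FRET; % inhibition of Bcl-2-G101V–ligand interaction from 490:520 ratio vs. increasing compound conc.; IC50 by 4-parameter logistic fit.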
The target of assay [2] is recombinant human Bcl-2-G101V protein (Homo sapiens (Human), UniProt P10415, G101V). Put plainly: Bcl-2-G101V TR-FRET Assay. It counts as binding. The settings on record: Bcl-2 G101V mutant, TR-FRET; read-out: Biochemical assay (IC50, nM) Bcl-2 G101V. Put shortly:
as §1
(TR-FRET usually uses a lanthanide donor and a delayed reading to cut background.)

The test system of assay [3] is RS4;11 (BCL-2 dependent acute lymphoblastic leukemia cell line). Put plainly: RS4;11 Cell Proliferation Assay. It counts as cell-based. The note with it: Homo sapiens, RS4-11, RS4;11 cells, read-out: Cellular proliferation assay (IC50, nM) RS4. Put shortly:
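RS4;11 cells, 50,000 per well in RPMI-1640 with 10% FBS, treated 48 h at 37 °C with a 10-point dilution series topping at 1 μM. Viability read by CellTiter-Glo ATP luminescence; mean IC50 reported.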

Assay [4] concerns BCL-2 G101V knock-in cell line H96 (derive from RS4;11). Kind of assay: Bcl 2-G101V Knock-In RS4;11 Cell Proliferation Assay. In kind it is cell-based. The settings on record: Homo sapiens, RS4;11 Bcl-2 G101V knock-in clone H96, 48 hrs, CellTiter-GLO, read-out: Cellular proliferation assay (IC50, nM) RS4. Put shortly:
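H96, a CRISPR-generated RS4;11 clone carrying BCL2-G101V knock-in (WES/RNA-seq validated), seeded 50,000 per well and exposed 48 h at 37 °C to 10-point dilutions topping at 1 or 10 μM. Viability by CellTiter-Glo luminescence; mean IC50.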
Background: ATP-based viability assays read luminescence as a measure of living cells.

The target in assay [5] is Recombinant human Bcl-2 protein (Homo sapiens (Human), UniProt P10415). Kind of assay: Bcl-2 TR-FRET Assay. It counts as binding. The method in brief: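 0.05 nM Bcl-2 pre-incubated 0.5 h at room temperature with 10-point compound dilutions (top final 1, 0.1, 0.02 or 0.01 uM) in 20 mM potassium phosphate pH 7.5, 50 mM NaCl, 1 mM EDTA, 0.05% Tween-20, 0.01% BSA; FITC-Bak peptide (0.5 nM) and anti-6His Tb cryptate added, 1 h. IC50 from four-parameter logistic fit.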

In assay [6] the target is recombinant human Bcl-2 D103Y protein (Homo sapiens (Human), UniProt P10415, D103Y). Kind of assay: Bcl-2-D103Y Biochemical Assay (TR-FRET). The settings on record: for IC50: TR-FRET, FITC labeled Bak peptide; for Ratio of Bcl-2 D103Y/Bcl-2 WT: ratio of IC50. In kind it is binding. Put shortly:
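Recombinant human Bcl-2 D103Y binding to its ligand measured by TR-FRET (ex 337 nm, em 490/520 nm) with increasing compound concentrations. Percent inhibition from the 490/520 nm ratio; IC50 from four-parameter logistic fit.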

Where [7] appears, read: Bcl-2 wild type, TR-FRET, read-out: Biochemical assay (IC50, nM) Bcl-2 WT.
[8] abbreviates: wild type Bcl-2, unit inferred, read-out: Bcl-2 WT.

The values below come from patent US20240376097A1, “BCL-2 Inhibitor” (BeiGene Ltd., priority 2020, published 2024).

Molecules are shown by their SMILES. Like-named read-outs stand apart in the source and are kept apart here.

Consider `CC(C)c1ccccc1[C@@H]1CN(Cc2ccc3c(c2)OCC3)CCN1C1CC2(CCN(c3ccc(C(=O)NS(=O)(=O)c4ccc(NC[C@H]5CC[C@](C)(O)CC5)c([N+](=O)[O-])c4)c(Oc4cnc5[nH]ccc5c4)c3)CC2)C1` [Example 304, 2-((1H-pyrrolo[2,3-b]pyridin-5-yl)oxy)-4-(2-((R)-4-((2,3-dihydrobenzofuran-6-yl)methyl)-2-(2-isopropylphenyl)piperazin-1-yl)-7-azaspiro[3.5]nonan-7-yl)-N-((4-((((1r,4r)-4-hydroxy-4-methylcyclohexyl)methyl)amino)-3-nitrophenyl)sulfonyl)benzamide], for which the “Ratio of Bcl-2 G101V/WT” value in assay [1] was found to be 3.2. In addition, the IC50 in assay [2] was determined as 0.41 nM; in assay [3], 0.3 nM; in assay [4] it was 2.3 nM; in assay [5] (setting [7]), 0.13 nM; in assay [5] (setting [8]) it was 0.13 nM; in assay [6], 0.22 nM. In addition, the “Ratio of Bcl-2 D103Y/Bcl-2 WT” value in assay [6] turned out to be 1.8.

For the compound `COc1ccc(CN2CCN(C3CC4(CCN(c5ccc(C(=O)NS(=O)(=O)c6ccc(NC[C@H]7CC[C@](C)(O)CC7)c([N+](=O)[O-])c6)c(Oc6cc7c(F)c[nH]c7nc6C)c5)CC4)C3)[C@H](c3ccccc3C(C)C)C2)cc1` [Example 125, 2-((3-fluoro-6-methyl-1H-pyrrolo [2,3-b]pyridin-5-yl)oxy)-N-((4-((((1r,4r)-4-hydroxy-4-methylcyclohexyl)methyl)amino)-3-nitrophenyl)sulfonyl)-4-(2-((R)-2-(2-isopropylphenyl)-4-(4-methoxybenzyl)piperazin-1-yl)-7-azaspiro[3.5]nonan-7-yl) benzamide], the “Ratio of Bcl-2 G101V/WT” value in assay [1] is listed as 2.4. The IC50 in assay [2] came out at 0.71 nM; in assay [3], 0.15 nM; in assay [4] it was 0.68 nM; in assay [5] (setting [7]), 0.3 nM; in assay [5] (setting [8]) it was 0.3 nM; in assay [6] it was 0.33 nM. In addition, the “Ratio of Bcl-2 D103Y/Bcl-2 WT” value in assay [6] is reported as 1.1.

On to `COc1ccc(CN2CCN(C3CC4(CCN(c5ccc(C(=O)NS(=O)(=O)c6ccc(NC[C@H]7CC[C@](C)(O)CC7)c([N+](=O)[O-])c6)c(Oc6cnc7[nH]ccc7c6)c5)CC4)C3)[C@H](c3ccccc3C(C)C)C2)c(OC)c1` (single isomer, unassigned) [Example 48a, 2-((1H-pyrrolo[2,3-b]pyridin-5-yl)oxy)-4-(2-((R or S)-4-(2,4-dimethoxybenzyl)-2-(2-isopropylphenyl)piperazin-1-yl)-7-azaspiro[3.5]nonan-7-yl)-N-((4-((((1r,4r)-4-hydroxy-4-methylcyclohexyl)methyl)amino)-3-nitrophenyl)sulfonyl)benzamide], for which, in assay [1], the “Ratio of Bcl-2 G101V/WT” value came to 4.6. For the same compound, the IC50 in assay [2] is 0.21 nM; in assay [3], 0.16 nM; in assay [4] it was 0.81 nM; in assay [5] (setting [7]), 0.045 nM; in assay [5] (setting [8]), 0.045 nM; in assay [6], 0.1 nM. Also, the “Ratio of Bcl-2 D103Y/Bcl-2 WT” value in assay [6] turned out to be 2.3.

With `CC(C)c1ccccc1[C@@H]1CN(Cc2ccc(F)c(F)c2)CCN1C1CC2(C1)CN(c1ccc(C(=O)NS(=O)(=O)c3ccc(NC[C@H]4CC[C@](C)(O)CC4)c([N+](=O)[O-])c3)c(Oc3cnc4[nH]cc(F)c4c3)c1)C2` [Example 229, 4-(6-((R)-4-(3,4-difluorobenzyl)-2-(2-isopropylphenyl)piperazin-1-yl)-2-azaspiro[3.3]heptan-2-yl)-2-((3-fluoro-1H-pyrrolo[2,3-b]pyridin-5-yl)oxy)-N-((4-((((1r,4r)-4-hydroxy-4-methylcyclohexyl)methyl)amino)-3-nitrophenyl)sulfonyl) benzamide], the “Ratio of Bcl-2 G101V/WT” value in assay [1] was 2.5. The IC50 amounted to 0.96 nM in assay [2]; 0.12 nM in assay [3]; 0.53 nM in assay [4]; 0.38 nM in assay [5] (setting [7]); 0.38 nM in assay [5] (setting [8]); 0.45 nM in assay [6]. Further, the “Ratio of Bcl-2 D103Y/Bcl-2 WT” value in assay [6] is 1.2.

Consider `COc1ccc(CN2CCN(C3CC4(CCN(c5ccc(C(=O)NS(=O)(=O)c6ccc(NC[C@H]7CC[C@](C)(O)CC7)c([N+](=O)[O-])c6)c(Oc6cnc7[nH]ccc7c6)c5)CC4)C3)C(c3ccccc3C(C)C)C2)cc1F` (stereo partly drawn) [Example 134, 2-((1H-pyrrolo[2,3-b]pyridin-5-yl)oxy)-4-(2-(4-(3-fluoro-4-methoxybenzyl)-2-(2-isopropylphenyl)piperazin-1-yl)-7-azaspiro[3.5]nonan-7-yl)-N-((4-((((1r,4r)-4-hydroxy-4-methylcyclohexyl)methyl)amino)-3-nitrophenyl)sulfonyl)benzamide], for which the “Ratio of Bcl-2 G101V/WT” value in assay [1] stood at 3.8. The IC50 in assay [2] stood at 1.3 nM; in assay [3], 0.4 nM; in assay [4], 3.1 nM; in assay [5] (setting [7]), 0.35 nM; in assay [5] (setting [8]) it was 0.35 nM; in assay [6], 0.67 nM. Further, in assay [6], the “Ratio of Bcl-2 D103Y/Bcl-2 WT” value was 1.9.

As for `[2H]C([2H])([2H])Oc1cc(CN2CCN(C3CC4(C3)CN(c3ccc(C(=O)NS(=O)(=O)c5ccc(NC[C@H]6CC[C@](C)(O)CC6)c([N+](=O)[O-])c5)c(Oc5cnc6[nH]ccc6c5)c3)C4)[C@H](c3ccccc3C(C)C)C2)cc2c1OCC2(C)C` [Example 324, 2-((1H-pyrrolo[2,3-b]pyridin-5-yl)oxy)-N-((4-((((1r,4r)-4-hydroxy-4-methylcyclohexyl)methyl)amino)-3-nitrophenyl)sulfonyl)-4-(6-((R)-2-(2-isopropylphenyl)-4-((7-(methoxy-d3)-3,3-dimethyl-2,3-dihydrobenzofuran-5-yl)methyl)piperazin-1-yl)-2-azaspiro[3.3]heptan-2-yl)benzamide], the “Ratio of Bcl-2 G101V/WT” value in assay [1] is given as 1.9. Further, the IC50 in assay [2] was 0.31 nM; in assay [3] it was 0.22 nM; in assay [4], 0.51 nM; in assay [5] (setting [7]), 0.16 nM; in assay [5] (setting [8]), 0.16 nM; in assay [6], 0.14 nM. In addition, the “Ratio of Bcl-2 D103Y/Bcl-2 WT” value in assay [6] was determined as 0.87.

For the compound `CC(C)c1ccccc1C1CN(Cc2cccc3c2OC(C)(C)O3)CCN1C1CC2(CCN(c3ccc(C(=O)NS(=O)(=O)c4ccc(NC[C@H]5CC[C@](C)(O)CC5)c([N+](=O)[O-])c4)c(Oc4cnc5[nH]ccc5c4)c3)CC2)C1` (stereo partly drawn) [Example 201, 2-((1H-pyrrolo[2,3-b]pyridin-5-yl)oxy)-4-(2-(4-((2,2-dimethylbenzo [d][1,3]dioxol-4-yl)methyl)-2-(2-isopropylphenyl)piperazin-1-yl)-7-azaspiro[3.5]nonan-7-yl)-N-((4-((((1r,4r)-4-hydroxy-4-methylcyclohexyl)methyl)amino)-3-nitrophenyl)sulfonyl)benzamide], the “Ratio of Bcl-2 G101V/WT” value in assay [1] came out at 3.9. The IC50 in assay [2] turned out to be 1.1 nM; in assay [3], 0.74 nM; in assay [4], 6.2 nM; in assay [5] (setting [7]) it was 0.28 nM.

In the case of `COc1ccc(CN2CCN(C3CC4(CCN(c5ccc(C(=O)NS(=O)(=O)c6ccc(NC[C@H]7CC[C@](C)(O)CC7)c([N+](=O)[O-])c6)c(Oc6cnc7[nH]ccc7c6)c5)CC4)C3)C(c3cc(F)ccc3C(C)C)C2)cc1` (stereo partly drawn) [Example 235], the “Ratio of Bcl-2 G101V/WT” value in assay [1] stood at 3.8. Besides, the IC50 in assay [2] was 1.1 nM; in assay [3], 0.27 nM; in assay [4], 1.21 nM; in assay [5] (setting [7]), 0.28 nM.

On to `CC(C)c1ccccc1[C@@H]1CN(Cc2ccnc3c2OCC(C)(C)O3)CCN1C1CC2(C1)CN(c1ccc(C(=O)NS(=O)(=O)c3ccc(NC[C@H]4CC[C@](C)(O)CC4)c([N+](=O)[O-])c3)c(Oc3cnc4[nH]ccc4c3)c1)C2` [Example 316, 2-((1H-pyrrolo[2,3-b]pyridin-5-yl)oxy)-4-(6-((R)-4-((3,3-dimethyl-2,3-dihydro-[1,4]dioxino[2,3-b]pyridin-8-yl)methyl)-2-(2-isopropylphenyl)piperazin-1-yl)-2-azaspiro[3.3]heptan-2-yl)-N-((4-((((1r,4r)-4-hydroxy-4-methylcyclohexyl)methyl)amino)-3-nitrophenyl)sulfonyl)benzamide], for which the “Ratio of Bcl-2 G101V/WT” value in assay [1] was determined as 4.5. Moreover, the IC50 in assay [2] came to 0.1 nM; in assay [3], 0.16 nM; in assay [4], 0.53 nM; in assay [5] (setting [7]), 0.022 nM.
